Experimental data as given in US20250101041A1, “POSITIVE ALLOSTERIC MODULATORS OF THE MUSCARINIC ACETYLCHOLINE RECEPTOR M4” (Vanderbilt University, priority 2022, published 2025).

Target: T1, human mAChR M4 (Homo sapiens, UniProt P08173)
T1 construct: expressed in transfected cells; host or cells: CHO-K1 (American Type Culture Collection), stably expressing hM4 and Gqi5
T1 sequence (P08173 1-479): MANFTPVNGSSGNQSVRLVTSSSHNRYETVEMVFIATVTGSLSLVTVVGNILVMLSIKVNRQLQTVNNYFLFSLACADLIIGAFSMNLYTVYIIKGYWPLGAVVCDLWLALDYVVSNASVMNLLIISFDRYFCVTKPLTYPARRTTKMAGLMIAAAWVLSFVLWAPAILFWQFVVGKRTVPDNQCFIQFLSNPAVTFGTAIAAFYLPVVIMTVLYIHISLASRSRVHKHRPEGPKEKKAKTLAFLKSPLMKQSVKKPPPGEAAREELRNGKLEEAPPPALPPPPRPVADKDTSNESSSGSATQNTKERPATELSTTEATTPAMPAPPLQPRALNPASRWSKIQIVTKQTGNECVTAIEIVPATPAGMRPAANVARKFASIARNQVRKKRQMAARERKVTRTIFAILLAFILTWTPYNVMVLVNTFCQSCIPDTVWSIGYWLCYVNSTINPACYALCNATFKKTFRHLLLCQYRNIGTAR
Assay: mAChR M4 cell-based functional assay: calcium mobilization (Fluo-4, FDSS), potentiation of EC20 acetylcholine response in hM4-Gqi5 CHO-K1 cells
Conditions: human M4; for Emax at 30 µM: CHO-K1, % ACh maximum at 30 μM; for EC50: potentiation of EC20 acetylcholine response, calcium mobilization; for Emax (%)*: % ACh maximum at 30 μM
Description: Human and rat M4 cDNAs, along with the chimeric G protein Gqi5, were transfected into Chinese hamster ovary (CHO-K1) cells purchased from the American Type Culture Collection using Lipofectamine2000. hM4-Gqi5 cells were grown in Ham's F-12 medium containing 10% heat-inactivated fetal bovine serum (FBS), 20 mM HEPES, 50 μg/mL G418 sulfate, and 500 μg/mL Hygromycin B. rM4-Gqi5 cells were grown in DMEM containing 10% heat-inactivated FBS, 20 mM HEPES, 400 μg/mL G418 sulfate, and 500 μg/mL Hygromycin B.
For high throughput measurement of agonist-evoked increases in intracellular calcium, CHO-K1 cells stably expressing muscarinic receptors were plated in growth medium lacking G418 and hygromycin at 15,000 cells/20 μL/well in Greiner 384-well black-walled, tissue culture (TC)-treated, clear-bottom plates (VWR). Cells were incubated overnight at 37° C. and 5% CO2. The next day, cells were washed using an ELX 405 (BioTek) with assay buffer; the final volume was then aspirated to 20 μL. Next, 20 μL of a […] of Fluo-4/acetoxymethyl ester (Invitrogen, Carlsbad, CA), prepared as a 2.3 mM stock in DMSO and mixed in a 1:1 ratio with 10% (w/v) Pluronic F-127 and diluted in assay buffer, was added to the wells and the cell plates were incubated for 50 min at 37° C. and 5% CO2. Dye was removed by washing with the ELX 405 and the final volume was aspirated to 20 μL. Compound master plates were formatted in an 11 point concentration-response curve (CRC) format (1:3 dilutions) in 100% DMSO with a starting concentration of 10 mM using a BRAVO liquid handler (Agilent). Test compound CRCs were then transferred to daughter plates (240 nL) using the Echo acoustic plate reformatter (Labcyte, Sunnyvale, CA) and then diluted into assay buffer (40 μL) to a 2× stock using a Thermo Fisher Combi (Thermo Fisher Scientific, Waltham, MA).
Calcium flux was measured using the Functional Drug Screening System (FDSS) 6000 or 7000 (Hamamatsu Corporation, Tokyo, Japan) as an increase in the fluorescent static ratio. Compounds were applied to cells (20 μL, 2X) using the automated system of the FDSS at 2-4 seconds into the protocol and the data were collected at 1 Hz. At 144 seconds, 10 μL of an EC20 concentration of the muscarinic receptor agonist acetylcholine was added (5×), followed by the addition of 12 μL of an […] concentration of acetylcholine at the 230 second time point (5×). Agonist activity was analyzed as a concentration-dependent increase in calcium mobilization upon compound addition. Positive allosteric modulator activity was analyzed as a concentration-dependent increase in the EC20 acetylcholine response. Antagonist activity was analyzed as a concentration-dependent decrease in the EC20 acetylcholine response. Concentration-response curves were generated using a four-parameter logistical equation in XLFit curve fitting software (IDBS, Bridgewater, NJ) for Excel (Microsoft, Redmond, WA) or Prism (GraphPad Software, Inc., San Diego, CA).
Compounds were synthesized as described above. Activity (EC50 and Emax) was determined in the mAChR M4 cell-based functional assay as described above and the data are shown in Table 4. The compound number corresponds to the compound numbers used in Tables 1-3.

Row | SMILES | Emax at 30 µM | EC50 | Emax (%)*
1 | COCc1cc(=O)n2nc(N3Cc4cc(C(F)(F)F)cnc4C(C)C3)c(C)c(C)c2n1 (single isomer, unassigned) [Compound 1-376] | 106% | 0.325 µM | 
2 | COCc1cc(=O)n2nc(N3Cc4cc(C(F)(F)F)cnc4C(C)C3)c(C)c(C)c2n1 (single isomer, unassigned) [Compound 1-377] |  | 0.365 µM | 112%
3 | Cc1c(N2CCc3ncc(C(F)(F)F)cc3C2C)nn2c(=O)ccnc2c1C (single isomer, unassigned) [Compound 1-385, 8,9-dimethyl-7-(5-methyl-3-(trifluoromethyl)-7,8-dihydro-1,6-naphthyridin-6(5H)-yl)-4H-pyrimido[1,2-b] pyridazin-4-one] |  | 1.73 µM | 42%
4 | Cc1c(N2CCc3ncc(C(F)(F)F)cc3C2C)nn2c(=O)ccnc2c1C (single isomer, unassigned) [Compound 1-386, 8,9-dimethyl-7-(5-methyl-3-(trifluoromethyl)-7,8-dihydro-1,6-naphthyridin-6(5H)-yl)-4H-pyrimido[1,2-b] pyridazin-4-one] |  | 0.95 µM | 80%
5 | Cc1cc2nccc(=O)n2nc1N1CCc2ncc(N3CCOC(c4ccccc4)C3)cc2C1 (stereo in doubt) [Compound 2-73, (S)-8-methyl-7-(3-(2-phenylmorpholino)-7,8-dihydro-1,6-naphthyridin-6(5H)-yl)-4H-pyrimido[1,2-b]pyridazin-4-one] | 87% |  | 
6 | Cc1cc2nccc(=O)n2nc1N1CCc2ncc(N3CCOC(c4ccccc4)C3)cc2C1 (stereo in doubt) [Compound 2-96, (R)-8-methyl-7-(3-(2-phenylmorpholino)-7,8-dihydro-1,6-naphthyridin-6(5H)-yl)-4H-pyrimido[1,2-b]pyridazin-4-one] | 42% | 1.43 µM | 
7 | Cc1cc2nccc(=O)n2nc1N1CCc2ncc(C(F)(F)F)cc2C1 [Compound 1-1, 8-methyl-7-(3-(trifluoromethyl)-7,8-dihydro-1,6-naphthyridin-6(5H)-yl)-4H-pyrimido[1,2-b]pyridazin-4-one] | 81% | 0.3 µM | 
8 | Cc1cc2nccc(=O)n2nc1N1CCc2ncc(-c3cn(C)nc3C)cc2C1 [Compound 1-2, 7-(3-(1,3-dimethyl-1H-pyrazol-4-yl)-7,8-dihydro-1,6-naphthyridin-6(5H)-yl)-8-methyl-4H-pyrimido[1,2-b]pyridazin-4-one] | 87% | 0.501 µM | 
9 | Cc1ccc(-c2cnc3c(c2)CN(c2nn4c(=O)ccnc4cc2C)CC3)cn1 [Compound 1-3, 8-methyl-7-(3-(6-methylpyridin-3-yl)-7,8-dihydro-1,6-naphthyridin-6(5H)-yl)-4H-pyrimido[1,2-b]pyridazin-4-one] | 76% | 0.099 µM | 
10 | Cc1cc2ncc(Cl)c(=O)n2nc1N1CCc2ncc(C(F)(F)F)cc2C1 [Compound 1-4, 3-chloro-8-methyl-7-(3-(trifluoromethyl)-7,8-dihydro-1,6-napthyridin-6(5H)-yl)-4H-pyrimido[1,2-b]pyridazin-4-one] | 96% | 0.181 µM | 
11 | Cc1ncc(-c2cnc3c(c2)CN(c2nn4c(=O)ccnc4cc2C)CC3)s1 [Compound 1-5, 8-methyl-7-(3-(2-methylthiazol-5-yl)-7,8-dihydro-1,6-naphthyridin-6(5H)-yl)-4H-pyrimido[1,2-b]pyridazin-4-one] | 86% | 0.422 µM | 
12 | Cc1cc2nccc(=O)n2nc1N1CCc2ncc(-c3cnn(C)c3)cc2C1 [Compound 1-6, 8-methyl-7-(3-(1-methyl-1H-pyrazol-4-yl)-7,8-dihydro-1,6-naphthyridin-6(5H)-yl)-4H-pyrimido[1,2-b]pyridazin-4-one] | 83% | 0.736 µM | 
13 | Cc1cc2nccc(=O)n2nc1N1CCc2ncc(-c3cnn(C4CC4)c3)cc2C1 [Compound 1-8, 7-(3-(1-cyclopropyl-1H-pyrazol-4-yl)-7,8-dihydro-1,6-naphthyridin-6(5H)-yl)-8-methyl-4H-pyrimido[1,2-b]pyridazin-4-one] | 81% | 0.308 µM | 
14 | Cc1cc2ncc(Cl)c(=O)n2nc1N1CCc2ncc(C3CC3)cc2C1 [Compound 1-9, 3-chloro-7-(3-cyclopropyl-7,8-dihydro-1,6-naphthyridin-6(5H)-yl)-8-methyl-4H-pyrimido[1,2-b]pyridazin-4-one] | 75% | 0.025 µM | 
15 | Cc1cc2ncc(Cl)c(=O)n2nc1N1CCc2ncc(-c3ccnn3C)cc2C1 [Compound 1-10, 3-chloro-8-methyl-7-(3-(1-methyl-1H-pyrazol-5-yl)-7,8-dihydro-1,6-naphthyridin-6(5H)-yl)-4H-pyrimido[1,2-b]pyridazin-4-one] | 86% | 0.162 µM | 
16 | Cc1cc2ncc(Cl)c(=O)n2nc1N1CCc2ncc(-c3cn(C)nc3C)cc2C1 [Compound 1-11, 3-chloro-7-(3-(1,3-dimethyl-1H-pyrazol-4-yl)-7,8-dihydro-1,6-naphthyridin-6(5H)-yl)-8-methyl-4H-pyrimido[1,2-b]pyridazin-4-one] | 92% | 0.158 µM | 
17 | Cc1cc2ncc(Cl)c(=O)n2nc1N1CCc2ncc(-c3cnn(C4CC4)c3)cc2C1 [Compound 1-12, 3-chloro-7-(3-(1-cyclopropyl-1H-pyrazol-4-yl)-7,8-dihydro-1,6-naphthyridin-6(5H)-yl)-8-methyl-4H-pyrimido[1,2-b]pyridazin-4-one] | 80% | 0.127 µM | 
18 | Cc1ncc(-c2cnc3c(c2)CN(c2nn4c(=O)c(Cl)cnc4cc2C)CC3)s1 [Compound 1-13, 3-chloro-8-methyl-7-(3-(2-methylthiazol-5-yl)-7,8-dihydro-1,6-naphthyridin-6(5H)-yl)-4H-pyrimido[1,2-b]pyridazin-4-one] | 79% | 0.373 µM | 
19 | Cc1ccc(-c2cnc3c(c2)CN(c2nn4c(=O)c(Cl)cnc4cc2C)CC3)cn1 [Compound 1-14, 3-chloro-8-methyl-7-(3-(6-methylpyridin-3-yl)-7,8-dihydro-1,6-naphthyridin-6(5H)-yl)-4H-pyrimido[1,2-b]pyridazin-4-one] | 77% | 0.069 µM | 
20 | Cc1cc2nc(C)c(F)c(=O)n2nc1N1CCc2ncc(C(F)(F)F)cc2C1 [Compound 1-15, 3-fluoro-2,8-dimethyl-7-(3-(trifluoromethyl)-7,8-dihydro-1,6-naphthyridin-6(5H)-yl)-4H-pyrimido[1,2-b]pyridazin-4-one] | 73% | 0.136 µM | 
21 | Cc1cc(=O)n2nc(N3CCc4ncc(C(F)(F)F)cc4C3)c(C)cc2n1 [Compound 1-16, 2,8-dimethyl-7-(3-(trifluoromethyl)-7,8-dihydro-1,6-naphthyridin-6(5H)-yl)-4H-pyrimido[1,2-b]pyridazin-4-one] | 71% | 0.34 µM | 
22 | Cc1cc2nc(C(F)(F)F)cc(=O)n2nc1N1CCc2ncc(C(F)(F)F)cc2C1 [Compound 1-17, 8-methyl-2-(trifluoromethyl)-7-(3-(trifluoromethyl)-7,8-dihydro-1,6-naphthyridin-6(5H)-yl)-4H-pyrimido[1,2-b]pyridazin-4-one] | 79% | 0.105 µM | 
